Measured values from US20230265151A1, “GIP/GLP1 CO-AGONIST COMPOUNDS” (priority 2020, published 2023).
Like-named read-outs stand apart in the source and are kept apart here. *1 amine or outer side, *2 acyl side, *3 side chain or, on linkers, in order; H or OH if unused. Where a SMILES comes first, the peptide text is derived from it. Side-chain parts run from the residue outwards. [ ]: non-standard residue; d: D form. The star is where a group is joined. αMePhe(2-F) = C[C@](N)(Cc1ccccc1F)C(=O)O; γGlu = O=C(O)[C@H](CCC(=O)[*:2])N[*:1]; αMeY = C[C@](N)(Cc1ccc(O)cc1)C(=O)O; αMeF = C[C@](N)(Cc1ccccc1)C(=O)O; αMeL = CC(C)C[C@](C)(N)C(=O)O; Lauroyl = CCCCCCCCCCCC(=O)*; Orn = NCCC[C@H](N)C(=O)O; AEEA = NCCOCCOCC(=O)O; Aib = CC(C)(N)C(=O)O

Key:
hGCGR = target: T1, hGCGR (Homo sapiens, UniProt P47871); assay: Functional cAMP formation (HTRF) in HEK-293 clonal cells expressing hGCGR, 0.1% bovine casein, without or with 1.0% human serum albumin; assay type: cell-based; details: 37° C.
T1 construct: expressed in transfected cells
In short: (§1)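 Readings of the HTRF 665/620 nm ratio, which falls as cAMP rises, were converted to nM cAMP using a standard curve after 30 min peptide exposure at 37° C.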

[1] = target: T2, human GIP receptor (hGIPR) (Homo sapiens, UniProt P48546); assay: [125I]-GIP binding, SPA with membranes of CHO cells expressing hGIPR
T2 construct: expressed in transfected cells; crude membranes
T2 sequence (P48546 22-466): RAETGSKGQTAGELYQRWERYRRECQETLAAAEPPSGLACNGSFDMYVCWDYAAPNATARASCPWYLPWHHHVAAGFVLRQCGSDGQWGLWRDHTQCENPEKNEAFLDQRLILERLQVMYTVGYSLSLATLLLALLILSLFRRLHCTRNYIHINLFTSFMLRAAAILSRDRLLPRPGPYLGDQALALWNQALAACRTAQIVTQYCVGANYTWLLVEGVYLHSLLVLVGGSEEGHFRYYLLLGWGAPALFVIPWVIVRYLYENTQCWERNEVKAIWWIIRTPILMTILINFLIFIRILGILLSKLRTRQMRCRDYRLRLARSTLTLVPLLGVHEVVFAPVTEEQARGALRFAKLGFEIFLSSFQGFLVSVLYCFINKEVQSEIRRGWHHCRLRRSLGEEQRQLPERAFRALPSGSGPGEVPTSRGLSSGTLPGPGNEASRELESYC

[2] = target: T3, human GLP-1 receptor (hGLP-1R) (Homo sapiens, UniProt P43220); assay: [125I]-GLP-1 binding, SPA with membranes of HEK293 cells expressing hGLP-1R
T3 construct: expressed in transfected cells; crude membranes

hGLP-1R = hGLP-1R (Homo sapiens, UniProt P43220); assay: Functional cAMP formation (HTRF) in HEK-293 clonal cells expressing hGLP-1R, 0.1% bovine casein, without or with 1.0% human serum albumin; assay type: cell-based; parameters: expressed in transfected cells; details: for EC50: cAMP; for Emax: percent of maximal response to GLP-1(7-36)NH2
In short: as §1

hGIPR = target: T4, hGIPR (Homo sapiens, UniProt P48546); assay: Functional cAMP formation (HTRF) in HEK-293 clonal cells expressing hGIPR, 0.1% bovine casein, without or with 1.0% human serum albumin; assay type: cell-based; details: 37° C.; for Emax: percent of maximal response to GIP(1-42)NH2, read-out: hGIPR Emax, % ± SEM; for EC50: cAMP
T4 construct: expressed in transfected cells
T4 sequence (P48546 22-466): T2 sequence (P48546 22-466)
In short: as §1

[3] = cAMP, 0.1% bovine casein (no human serum albumin), geometric mean, read-out: hGCGR EC50, nM (SEM, n)
[4] = cAMP, 0.1% bovine casein and 1.0% human serum albumin, geometric mean (SEM, n), read-out: hGCGR EC50, nM (SEM, n)
[5] = human GIPR, geometric mean (SEM, n), read-out: Binding Affinity Ki, nM (SEM, n) hGIPR
[6] = human GLP-1R, geometric mean (SEM, n), read-out: Binding Affinity Ki, nM (SEM, n) hGLP-1R
[7] = 37° C., 0.1% bovine casein (no human serum albumin), geometric mean, read-out: hGLP-1R EC50, nM (SEM, n)
[8] = HEK293, cAMP, 0.1% bovine casein and 1.0% human serum albumin
[9] = 0.1% bovine casein (no human serum albumin), geometric mean, read-out: hGIPR EC50, nM (SEM, n)

T1 sequence (P47871 26-477): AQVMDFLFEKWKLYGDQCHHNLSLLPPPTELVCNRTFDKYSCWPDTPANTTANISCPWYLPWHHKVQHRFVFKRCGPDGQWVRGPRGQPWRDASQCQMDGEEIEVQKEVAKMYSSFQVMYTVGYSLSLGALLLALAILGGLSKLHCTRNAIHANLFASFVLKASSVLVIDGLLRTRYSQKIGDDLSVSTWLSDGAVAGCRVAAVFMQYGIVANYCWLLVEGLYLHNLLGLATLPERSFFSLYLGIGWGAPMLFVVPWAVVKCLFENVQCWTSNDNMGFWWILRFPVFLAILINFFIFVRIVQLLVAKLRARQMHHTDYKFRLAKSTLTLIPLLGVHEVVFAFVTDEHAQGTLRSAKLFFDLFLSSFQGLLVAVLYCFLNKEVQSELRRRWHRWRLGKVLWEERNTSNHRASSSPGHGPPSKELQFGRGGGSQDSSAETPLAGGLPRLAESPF
T3 sequence (P43220 24-463): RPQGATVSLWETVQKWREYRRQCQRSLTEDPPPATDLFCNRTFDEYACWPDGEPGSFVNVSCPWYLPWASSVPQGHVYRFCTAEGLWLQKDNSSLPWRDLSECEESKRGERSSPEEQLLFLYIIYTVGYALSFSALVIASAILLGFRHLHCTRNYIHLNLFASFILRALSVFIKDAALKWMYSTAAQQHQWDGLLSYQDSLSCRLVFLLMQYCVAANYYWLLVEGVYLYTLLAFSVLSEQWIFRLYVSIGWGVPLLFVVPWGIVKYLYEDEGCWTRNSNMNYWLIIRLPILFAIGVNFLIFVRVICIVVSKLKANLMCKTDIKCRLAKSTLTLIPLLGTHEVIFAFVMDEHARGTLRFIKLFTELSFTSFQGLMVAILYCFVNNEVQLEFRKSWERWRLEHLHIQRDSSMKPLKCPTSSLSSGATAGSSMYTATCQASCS
Chain of hGLP-1R (P43220 24-463): as above

Row | Compound | EC50 (hGCGR; [3]) [nM] | EC50 (hGCGR; [4]) [nM] | Ki [1, 5] [nM] | Ki [2, 6] [nM] | EC50 (hGLP-1R; [7]) [nM] | Emax (hGIPR; [8]) [%] | EC50 (hGIPR; [9]) [nM] | further results
1 | CCCCCCCCCCCC(=O)N[C@@H](CCC(=O)NCCOCCOCC(=O)NCCOCCOCC(=O)NCCCC[C@H](NC(=O)[C@H](CCCN)NC(=O)[C@H](CC(=O)O)NC(=O)[C@H](CC(C)C)NC(=O)[C@](C)(CC(C)C)NC(=O)[C@@H](NC(=O)C(C)(C)NC(=O)[C@H](Cc1ccncc1)NC(=O)[C@H](CC(=O)O)NC(=O)[C@H](CO)NC(=O)[C@@H](NC(=O)[C@](C)(Cc1ccccc1F)NC(=O)[C@@H](NC(=O)CNC(=O)[C@H](CCC(=O)O)NC(=O)C(C)(C)NC(=O)[C@@H](N)Cc1ccc(O)cc1)[C@@H](C)O)[C@@H](C)O)[C@@H](C)CC)C(=O)N[C@@H](C)C(=O)N[C@@H](CCC(N)=O)C(=O)NC(C)(C)C(=O)N[C@@H](CCCN)C(=O)N[C@@H](Cc1ccccc1)C(=O)N[C@H](C(=O)N[C@H](CCC(=O)O)C(=O)N[C@@](C)(Cc1ccc(O)cc1)C(=O)N[C@@H](CC(C)C)C(=O)N[C@H](C(=O)N[C@@H](CCCCNC(=O)COCCOCCNC(=O)COCCOCCNC(=O)CC[C@H](NC(=O)CCCCCCCCCCC)C(=O)O)C(=O)NCC(=O)NCC(=O)N1CCC[C@H]1C(=O)N[C@@H](CO)C(=O)N[C@@H](CO)C(=O)NCC(=O)N[C@@H](C)C(=O)N1CCC[C@H]1C(=O)N1CCC[C@H]1C(=O)N1CCC[C@H]1C(=O)N[C@@H](CO)C(N)=O)[C@@H](C)CC)[C@@H](C)CC)C(=O)O [Example 414] | > 9950 | > 9950 | 0.0229 | 0.194 | 0.119 | 92.2 | 0.00961 | EC50 (hGIPR; 0.1% bovine casein and 1.0% human serum albumin, geometric mean (SEM, n), read-out: hGIPR EC50, nM (SEM, n)): 0.274 nM
2 | CCCCCCCCCCCC(=O)N[C@@H](CCC(=O)NCCOCCOCC(=O)NCCOCCOCC(=O)NCCCC[C@H](NC(=O)[C@H](CCCN)NC(=O)[C@H](CC(=O)O)NC(=O)[C@H](CC(C)C)NC(=O)[C@](C)(CC(C)C)NC(=O)[C@@H](NC(=O)[C@H](CO)NC(=O)[C@H](CCCCNC(=O)COCCOCCNC(=O)COCCOCCNC(=O)CC[C@H](NC(=O)CCCCCCCCCCC)C(=O)O)NC(=O)[C@H](CC(=O)O)NC(=O)[C@H](CO)NC(=O)[C@@H](NC(=O)[C@](C)(Cc1ccccc1F)NC(=O)[C@@H](NC(=O)CNC(=O)[C@H](CCC(=O)O)NC(=O)C(C)(C)NC(=O)[C@@H](N)Cc1ccc(O)cc1)[C@@H](C)O)[C@@H](C)O)[C@@H](C)CC)C(=O)N[C@@H](C)C(=O)N[C@@H](CCC(N)=O)C(=O)NC(C)(C)C(=O)N[C@@H](CCC(=O)O)C(=O)N[C@@](C)(Cc1ccccc1)C(=O)N[C@H](C(=O)N[C@H](CCC(=O)O)C(=O)N[C@@](C)(Cc1ccc(O)cc1)C(=O)N[C@@H](CC(C)C)C(=O)N[C@H](C(=O)N[C@@H](CCC(=O)O)C(=O)NCC(=O)NCC(=O)N1CCC[C@H]1C(=O)N[C@@H](CO)C(=O)N[C@@H](CO)C(=O)NCC(=O)N[C@@H](C)C(=O)N1CCC[C@H]1C(=O)N1CCC[C@H]1C(=O)N1CCC[C@H]1C(=O)N[C@@H](CO)C(N)=O)[C@@H](C)CC)[C@@H](C)CC)C(=O)O [Example 293] (H-Y[Aib]EGT[αMePhe(2-F)]TSDK([AEEA-AEEA-γGlu-Lauroyl])SI[αMeL]LD[Orn]K([AEEA-AEEA-γGlu-Lauroyl])AQ[Aib]E[αMeF]I[dE][αMeY]LIEGGPSSGAPPPS-NH2) | > 9950 |  | 0.022 | 0.211 | 0.102 |  | 0.00915 | EC50 (hGCGR; 0.1% bovine casein and 1.0% human serum albumin, geometric mean, read-out: hGCGR EC50, nM (SEM, n)): > 9950 nM; Emax (hGLP-1R; HEK293, 0.1% bovine casein and 1.0% human serum albumin, 37° C., read-out: hGLP-1R Emax, % ± SEM): 99.4%; Emax (hGIPR; HEK293, 0.1% bovine casein and 1.0% human serum albumin): 96.6%
3 | CCCCCCCCCCCC(=O)N[C@@H](CCC(=O)NCCOCCOCC(=O)NCCOCCOCC(=O)NCCCC[C@H](NC(=O)[C@H](CO)NC(=O)[C@@H]1CCCN1C(=O)[C@@H]1CCCN1C(=O)[C@@H]1CCCN1C(=O)[C@H](C)NC(=O)CNC(=O)[C@H](CO)NC(=O)[C@H](CO)NC(=O)[C@@H]1CCCN1C(=O)CNC(=O)CNC(=O)[C@H](CCC(=O)O)NC(=O)[C@@H](NC(=O)[C@H](CC(C)C)NC(=O)[C@](C)(Cc1ccc(O)cc1)NC(=O)[C@@H](CCC(=O)O)NC(=O)[C@@H](NC(=O)[C@H](Cc1ccccc1)NC(=O)[C@H](CCC(=O)O)NC(=O)C(C)(C)NC(=O)[C@H](CCC(N)=O)NC(=O)[C@H](C)NC(=O)[C@H](CCCCNC(=O)COCCOCCNC(=O)COCCOCCNC(=O)CC[C@H](NC(=O)CCCCCCCCCCC)C(=O)O)NC(=O)[C@H](CCCN)NC(=O)[C@H](CC(=O)O)NC(=O)[C@H](CC(C)C)NC(=O)[C@](C)(CC(C)C)NC(=O)[C@@H](NC(=O)C(C)(C)NC(=O)[C@H](Cc1ccncc1)NC(=O)[C@H](CC(=O)O)NC(=O)[C@H](CO)NC(=O)[C@@H](NC(=O)[C@](C)(Cc1ccccc1F)NC(=O)[C@@H](NC(=O)CNC(=O)[C@H](CCC(=O)O)NC(=O)C(C)(C)NC(=O)[C@@H](N)Cc1ccc(O)cc1)[C@@H](C)O)[C@@H](C)O)[C@@H](C)CC)[C@@H](C)CC)[C@@H](C)CC)C(N)=O)C(=O)O [Example 324] | > 9950 | > 9950 | 0.0163 | 0.168 | 0.0647 | 85.4 | 0.00632 | Emax (hGLP-1R; HEK293, cAMP, 37° C., 0.1% bovine casein and 1.0% human serum albumin, read-out: hGLP-1R Emax, % ± SEM): 99.4%; Emax (hGLP-1R; HEK293, cAMP, 37° C., 0.1% bovine casein, arithmetic mean, read-out: hGLP-1R Emax, % ± SEM): 97.6%; EC50 (hGLP-1R; 37° C., 0.1% bovine casein and 1.0% human serum albumin, geometric mean (SEM, n), read-out: hGLP-1R EC50, nM (SEM, n)): 4.38 nM
4 | CC[C@H](C)[C@H](NC(=O)[C@H](CC(C)C)NC(=O)[C@](C)(Cc1ccc(O)cc1)NC(=O)[C@@H](CCC(=O)O)NC(=O)[C@@H](NC(=O)[C@H](Cc1ccccc1)NC(=O)[C@H](CCCCNC(=O)COCCOCCNC(=O)CC[C@H](NC(=O)CCCCCCCCCOc1ccc(C(=O)O)cc1)C(=O)O)NC(=O)C(C)(C)NC(=O)[C@H](CCC(N)=O)NC(=O)[C@H](C)NC(=O)[C@H](CCCCNC(=O)COCCOCCNC(=O)CC[C@H](NC(=O)CCCCCCCCCOc1ccc(C(=O)O)cc1)C(=O)O)NC(=O)[C@H](CCCN)NC(=O)[C@H](CC(=O)O)NC(=O)[C@H](CC(C)C)NC(=O)[C@](C)(CC(C)C)NC(=O)[C@@H](NC(=O)C(C)(C)NC(=O)[C@H](Cc1ccncc1)NC(=O)[C@H](CC(=O)O)NC(=O)[C@H](CO)NC(=O)[C@@H](NC(=O)[C@](C)(Cc1ccccc1F)NC(=O)[C@@H](NC(=O)CNC(=O)[C@H](CCC(=O)O)NC(=O)C(C)(C)NC(=O)[C@@H](N)Cc1ccc(O)cc1)[C@@H](C)O)[C@@H](C)O)[C@@H](C)CC)[C@@H](C)CC)C(=O)N[C@@H](CCC(=O)O)C(=O)NCC(=O)NCC(=O)N1CCC[C@H]1C(=O)N[C@@H](CO)C(=O)N[C@@H](CO)C(=O)NCC(=O)N[C@@H](C)C(=O)N1CCC[C@H]1C(=O)N1CCC[C@H]1C(=O)N1CCC[C@H]1C(=O)N[C@@H](CO)C(N)=O [Example 360] |  |  |  |  |  |  |  | EC50 (hGCGR; hGCGR EC50, nM (SEM, n), cAMP, 0.1% bovine casein (no human serum albumin), geometric mean): > 9950 nM; EC50 (hGCGR; hGCGR EC50, nM (SEM, n), cAMP, 0.1% bovine casein and 1.0% human serum albumin, geometric mean (SEM, n)): > 9950 nM; Ki [1]: 0.046 nM; Ki [2]: 0.673 nM; Emax (hGLP-1R; HEK293, read-out: hGLP-1R Emax, % ± SEM, cAMP, 37° C., 0.1% bovine casein and 1.0% human serum albumin): 97.1%; Emax (hGLP-1R; HEK293, read-out: hGLP-1R Emax, % ± SEM, cAMP, 37° C., 0.1% bovine casein, arithmetic mean): 89.8%; EC50 (hGLP-1R; hGLP-1R EC50, nM (SEM, n), 37° C., 0.1% bovine casein (no human serum albumin), geometric mean): 0.301 nM; EC50 (hGIPR; hGIPR EC50, nM (SEM, n), 0.1% bovine casein (no human serum albumin), geometric mean): 0.0121 nM
